Data published in patent US5985927A, “Medicaments for the selective treatment of tumor tissues” (priority 1995, dated 1999).

How the values were obtained:
K-562 cancer cells = experiment: toxicity effect on K-562 cancer cells as a function of extracellular pH (FACScan and XTT-ELISA); assay type: cell-based
Description: Thus, the toxicity properties of a substance which comes under consideration can be determined experimentally by the FACScan and the XTT-ELISA techniques. Both methods are known in the prior art. […] FACS and XTT techniques can likewise be used to investigate the toxicity of the substances for mononuclear blood cells (MNCs). The proportion of dead cells is detected in the FACS technique by propidium iodide staining, and in the XTT method by conversion of XTT into formazan by mitochondrial dehydrogenase.
To detect pH-sensitive toxic substances, selected substances are allowed to act at various predetermined pH values, for example at pH 5.5, 6.0, 6.5, 7.0 and 7.5, both on tumor cell lines and on MNCs, for example for 4 hours and 24 hours, in order thereafter to measure the number of killed cancer cells or MNCs. Control measurements without addition of pH-sensitive substances are carried out in parallel with this.
The activity of the 4-succinic ester of 2,4-dihydroxybenzoic acid, of trans-3,4-difluorocinnamic acid and of 2,4-dinitrophenol has been investigated. Used for this purpose were the methods of the FACScan and ELISA techniques described above. […] FIG. 2A depicts the effect of trans-3,4-difluorocinnamic acid on K-562 cells. […] FIG. 2B depicts the effect of the same compound on MNCs.

[1] = system: mononuclear blood cells (MNCs); experiment: toxicity on mononuclear blood cells (MNCs) as a function of extracellular pH (FACScan and XTT-ELISA); assay type: cell-based; settings: extracellular pH in the range from 7.2 to 7.4; FIG. 1B
Description: A skilled person is able to find, with the aid of the above information and using his general expert knowledge and a few simple tests, as described hereinafter, compounds which are used according to the invention as medicinal substance. Thus, the toxicity properties of a substance which comes under consideration can be determined experimentally by the FACScan and the XTT-ELISA techniques. Both methods are known in the prior art. It is possible to investigate suspended cancer cell lines such as, for example, K-562, Raji or Daudi by both techniques, but adherent cancer cell lines only by the XTT-ELISA technique. FACS and XTT techniques can likewise be used to investigate the toxicity of the substances for mononuclear blood cells (MNCs). The proportion of dead cells is detected in the FACS technique by propidium iodide staining, and in the XTT method by conversion of XTT into formazan by mitochondrial dehydrogenase. The methods are described, for example, in Tumor-Biologie 1994, 15, 304 and in the biochemistry catalog of Boehringer Mannheim, Germany 0392.C 73.3.1465554 1 CB, Cat. No. 1465 015. […]

[2] = system: small-cell lung tumor (LXFS 650); experiment: tumor growth of implanted small-cell lung tumor (LXFS 650) in nude mice; assay type: in vivo; settings: tail vein injection, 4 consecutive days, FIG. 4
Description: The three compounds mentioned above by way of example have likewise been investigated for their in vivo suitability in an animal model. Nude mice are chosen as animal model, into which it is possible to implant various human tumors. This makes it possible to investigate the therapeutic efficacy of the substances under defined reproducible conditions. An animal experiment of this type is documented in FIG. 4. A routine method which is conventional in the prior art and is outlined below is used.
A small-cell lung tumor (LXFS 650) whose extra-cellular pH of about 6.9 is close to the physiological pH of 7.2-7.3 is implanted into the nude mice. The therapeutic substance used is, as in FIG. 1, 2,4-di-hydroxybenzoic acid (substance (1)). 3-4 weeks after implantation of the tumor, 15 mice with tumors 5-7 mm in diameter are divided into 3 groups: the first group of 5 serves as control group without therapy, and the substance (1) is injected into the tail vein in a concentration of 200 mg/kg/day in the second group of 5 and in a concentration of 400 mg/kg/day in the third group of 5. In the present experiment, 4 injections into the tail vein were carried out on 4 consecutive days. […] The tumor volumes were determined on days 7, 10, 14 and 17.

[3] = K-562 cancer cells, extracellular pH, FIG. 1A

## O=C(O)CCC(=O)Oc1ccc(C(=O)O)c(O)c1 [4-succinic ester of 2,4-dihydroxybenzoic acid]
K-562 cancer cells; [3]
  pH of maximum toxicity effect on K-562 cells: 5.7
  pH of onset of toxicity effect on K-562 cells: ~6.5
[1]
  toxicity on MNCs: Negligible toxicity

## O=C(O)c1ccc(O)cc1O [substance (1), 2,4-di-hydroxybenzoic acid]
[2]; 200 mg/kg/day, only on day 10
  effect on tumor growth: onset of a slight effect only on day 10
[2]; 400 mg/kg/day, after day 7 and up to day 10
  tumor growth: cessation of growth
[2]; 400 mg/kg/day, after day 10, therapy not continued further
  tumor growth after end of therapy: the tumor starts to grow again

## O=C(O)/C=C/c1ccc(F)c(F)c1 [trans-3,4-difluorocinnamic acid]
K-562 cancer cells; cytotoxic effect negligible until the extracellular pH is below this value, K-562 cells, FIG. 2A
  extracellular pH until which the cytotoxic effect on K-562 cells is negligible: below 6.5
